Among the test systems are OVCAR-5; Malme-3M; 786-0; NCI-H23; T47D; SK-OV-3; MOLT-4; SN12C; UACC-62; HOP-62; TK-10; IGROV-1; HT-29; UACC-257; MDA-N; A498; SW-620; OVCAR-8; SF-295; HCT-15.
Holding throughout (test): NCI-60 cell line screen, 48 h

The values below come from ChEMBL document CHEMBL1201862, “PubChem BioAssay data set” (2004).

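Briefly, cells in 96-well plates were exposed to five compound concentrations for 48 h, and endpoints were estimated by linear interpolation. GI50 marks 50% less growth.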 Activity calls are given as the source filed them. No stated cut-off is given here; in the data, active = GI50 up to about 1.1 µM and inactive = higher.

On to `COc1cc2c(c(OC)c1OC)-c1ccc(SC)c(=O)cc1C(NC(=O)c1ccccc1)CC2` (stereo not given), for which the GI50 in the assay with OVCAR-5 was 0.303 µM (active); in the assay on Malme-3M, < 0.01 µM (active); in the assay with 786-0 it was < 0.01 µM (active); with NCI-H23 it was 0.0107 µM (active); in the assay on T47D, 86.3 µM (inactive); with SK-OV-3, 0.027 µM (active). Further, the GI50 in the assay on MOLT-4 is < 0.01 µM (active); in the assay on SN12C it was < 0.01 µM (active); in the assay on UACC-62, < 0.01 µM (active); in the assay with HOP-62 it was < 0.01 µM (active); with TK-10, 0.24 µM (active); in the assay on IGROV-1, < 0.01 µM (active). Also, the GI50 was < 0.01 µM (active) in the assay on HT-29; 0.526 µM (active) in the assay on UACC-257; < 0.01 µM (active) with MDA-N; < 0.01 µM (active) in the assay on A498; < 0.01 µM (active) in the assay with SW-620; < 0.01 µM (active) in the assay on OVCAR-8. The GI50 in the assay on SF-295 is < 0.01 µM (active); in the assay on HCT-15, under 0.01 µM.

In the case of `CC1(C)CCCCCC(O)C(O)CCC(C)(C)C1=O` (stereo not given), the GI50 in the assay on OVCAR-5, in the assay on Malme-3M, in the assay with 786-0, in the assay on NCI-H23, with T47D and in the assay with SK-OV-3 was > 100 µM (inactive) throughout. For the same molecule, the GI50 in the assay on MOLT-4, in the assay on SN12C, in the assay with UACC-62, in the assay with HOP-62, in the assay on TK-10 and with IGROV-1 was > 100 µM (inactive) in each case. The GI50 in the assay with HT-29, with UACC-257, with MDA-N, with A498, in the assay with SW-620 and with OVCAR-8 was > 100 µM (inactive) in each case. The GI50 in the assay with SF-295 was > 100 µM (inactive); in the assay with HCT-15, over 100 µM.

Turning to `O=C(NCCc1ccccn1)c1ccc2cc(C(=O)N3CC(CCl)c4ccc([N+](=O)[O-])cc43)[nH]c2c1` (stereo not given), the GI50 with OVCAR-5 is 97.9 µM (inactive); in the assay with Malme-3M it was 10.9 µM (inactive); in the assay on 786-0, 9.64 µM (inactive); with NCI-H23, 45.3 µM (inactive); in the assay with T47D it was > 100 µM (inactive); in the assay on SK-OV-3, 10.6 µM (inactive). Also, the GI50 was > 100 µM (inactive) in the assay on MOLT-4; > 65 µM (inactive) in the assay with SN12C; 8.99 µM (inactive) in the assay on UACC-62; 13.2 µM (inactive) in the assay on HOP-62; 20.7 µM (inactive) in the assay on TK-10; 53.6 µM (inactive) in the assay on IGROV-1. In addition, the GI50 with HT-29 was > 100 µM (inactive); with UACC-257, > 46.3 µM (inactive); in the assay on MDA-N it was > 100 µM (inactive); with A498, > 57.7 µM (inactive); in the assay on SW-620, > 100 µM (inactive); in the assay on OVCAR-8, 9.12 µM (inactive). For the same molecule, the GI50 was > 35.3 µM (inactive) in the assay on SF-295 and 77.4 µM with HCT-15.

Regarding `COC(=O)C(Cc1ccc(Oc2cc(CC(NC(=O)c3ccccc3)C(=O)OC)ccc2OC)cc1)NC(=O)c1ccccc1` (stereo not given), the GI50 is > 100 µM (inactive) in the assay with OVCAR-5; 15.2 µM (inactive) in the assay on Malme-3M; 7.83 µM (inactive) in the assay with 786-0; 22.9 µM (inactive) in the assay with NCI-H23; 6.04 µM (inactive) in the assay with T47D; > 84.9 µM (inactive) in the assay on SK-OV-3. Also, the GI50 was 0.948 µM (active) with MOLT-4; 6.64 µM (inactive) in the assay on SN12C; 17.9 µM (inactive) with UACC-62; 38.3 µM (inactive) in the assay with HOP-62; 7.53 µM (inactive) in the assay with TK-10; 6.3 µM (inactive) with IGROV-1. Also, the GI50 was 26.6 µM (inactive) in the assay with HT-29; 7.35 µM (inactive) in the assay with UACC-257; 14.2 µM (inactive) in the assay with MDA-N; 46.3 µM (inactive) in the assay with A498; 39.3 µM (inactive) in the assay with SW-620; 10.7 µM (inactive) in the assay with OVCAR-8. For the same molecule, the results for the GI50 in the assay with SF-295 and with HCT-15 were > 77.6 µM (inactive) and 28.7 µM, respectively.

In the case of `CC(C)=CCCC(C)C1=C(O)C(=O)C(C)=CC1=O` (stereo not given), the GI50 is 16.4 µM (inactive) in the assay with OVCAR-5; 9.29 µM (inactive) in the assay with Malme-3M; 5.86 µM (inactive) in the assay with 786-0; 16.7 µM (inactive) in the assay on NCI-H23; 2.07 µM (inactive) with T47D; 28.1 µM (inactive) in the assay with SK-OV-3. Also, the GI50 in the assay on MOLT-4 is 1.8 µM (inactive); in the assay on SN12C it was 14.7 µM (inactive); in the assay on UACC-62 it was 13.4 µM (inactive); in the assay on HOP-62, 18.9 µM (inactive); in the assay on TK-10, 7.73 µM (inactive); with IGROV-1 it was 15.6 µM (inactive). Also, the GI50 in the assay with HT-29 was 16.3 µM (inactive); in the assay with UACC-257, 9.12 µM (inactive); in the assay on MDA-N it was 5.78 µM (inactive); with A498, 18.7 µM (inactive); in the assay with SW-620, 5.94 µM (inactive); in the assay on OVCAR-8, 18.1 µM (inactive). In addition, the GI50 with SF-295 was 34 µM (inactive); with HCT-15, 2.23 µM.

`O=[N+]([O-])c1cc(-c2nc(-c3ccccc3)c(-c3ccccc3)[nH]2)c(O)c([N+](=O)[O-])c1`: the GI50 in the assay on OVCAR-5 is 23.2 µM (inactive); with Malme-3M, 21.1 µM (inactive); with 786-0, 21.6 µM (inactive); in the assay on NCI-H23, 16.9 µM (inactive); with T47D, 20.3 µM (inactive); in the assay on SK-OV-3 it was 20.2 µM (inactive). In addition, the GI50 in the assay with MOLT-4 is 22.8 µM (inactive); in the assay with SN12C, 26.5 µM (inactive); with UACC-62, 17.5 µM (inactive); with HOP-62 it was 20.4 µM (inactive); with TK-10 it was 28.5 µM (inactive); in the assay on IGROV-1, 32.7 µM (inactive). The GI50 is 16.8 µM (inactive) in the assay on HT-29; 24.2 µM (inactive) with UACC-257; 31.1 µM (inactive) in the assay with MDA-N; 20.8 µM (inactive) in the assay on A498; 27.5 µM (inactive) in the assay with SW-620; 34 µM (inactive) in the assay with OVCAR-8. Further, the GI50 was 22.3 µM (inactive) in the assay with SF-295 and 15.8 µM in the assay with HCT-15.

On to `O=C(O)[C@@H]1C2CC([C@@H]1C(=O)O)[C@H](N1C(=O)CCC1=O)[C@@H]2Br` (stereo not given in full), for which the GI50 in the assay on OVCAR-5, with Malme-3M, in the assay on 786-0, with NCI-H23, in the assay with T47D and with SK-OV-3 was > 100 µM (inactive) each time. Moreover, the GI50 in the assay with MOLT-4, with SN12C, with UACC-62, in the assay on HOP-62, in the assay with TK-10 and with IGROV-1 was > 100 µM (inactive) throughout. Also, the GI50 with HT-29, in the assay on UACC-257, in the assay with MDA-N, in the assay on A498, in the assay with SW-620 and with OVCAR-8 was > 100 µM (inactive) each time. Further, the GI50 with SF-295 was > 100 µM (inactive); in the assay with HCT-15, over 100 µM.

For the molecule `O=C(N/N=C/c1ccc2c(c1)CCC2)c1ccccc1O`, the GI50 is 32.5 µM (inactive) in the assay on OVCAR-5; 21.4 µM (inactive) in the assay on Malme-3M; 18.5 µM (inactive) in the assay with 786-0; 24.2 µM (inactive) in the assay with NCI-H23; 25.5 µM (inactive) in the assay on T47D; 12.1 µM (inactive) in the assay on SK-OV-3. In addition, the GI50 in the assay on MOLT-4 was 36.9 µM (inactive); in the assay on SN12C, 23.1 µM (inactive); with UACC-62 it was 22 µM (inactive); in the assay on HOP-62 it was 17 µM (inactive); in the assay with TK-10, 23 µM (inactive); in the assay with IGROV-1, 17.8 µM (inactive). In addition, the GI50 in the assay on HT-29 was 27.3 µM (inactive); in the assay on UACC-257, 28.6 µM (inactive); with MDA-N, 19.4 µM (inactive); in the assay with A498 it was 15.7 µM (inactive); in the assay on SW-620 it was 31.1 µM (inactive); with OVCAR-8, 25.4 µM (inactive). Besides, the GI50 in the assay with SF-295 is 16.4 µM (inactive); in the assay on HCT-15, 22.9 µM.

Turning to `NC1CC(N)c2c(Br)sc(Br)c21` (stereo not given), the GI50 was > 100 µM (inactive) with OVCAR-5; > 100 µM (inactive) with Malme-3M; 95.3 µM (inactive) in the assay with 786-0; > 100 µM (inactive) with NCI-H23; 54 µM (inactive) in the assay with T47D; > 100 µM (inactive) with SK-OV-3. Moreover, the GI50 in the assay with MOLT-4 is 67.5 µM (inactive); in the assay on SN12C, > 100 µM (inactive); in the assay with UACC-62, > 100 µM (inactive); in the assay with HOP-62, 86.1 µM (inactive); with TK-10, > 100 µM (inactive); in the assay with IGROV-1, 39.1 µM (inactive). Also, the GI50 in the assay with HT-29 is > 100 µM (inactive); in the assay with UACC-257, > 100 µM (inactive); with MDA-N, > 100 µM (inactive); with A498 it was > 100 µM (inactive); in the assay with SW-620, 62.2 µM (inactive); with OVCAR-8, 55.6 µM (inactive). The GI50 with SF-295 is 98.9 µM (inactive); in the assay on HCT-15, over 100 µM.

As to `C=CCN(CCNS(=O)(=O)c1ccc(C)cc1)S(=O)(=O)c1ccc(C)cc1`, the GI50 in the assay on OVCAR-5 is 58.2 µM (inactive); in the assay with Malme-3M, 36.1 µM (inactive); in the assay on 786-0 it was 61.8 µM (inactive); in the assay on NCI-H23, > 50.1 µM (inactive); in the assay on T47D, > 51.1 µM (inactive); in the assay on SK-OV-3, 12.9 µM (inactive). Moreover, the GI50 with MOLT-4 is > 45.7 µM (inactive); in the assay on SN12C it was > 72.6 µM (inactive); in the assay with UACC-62, 73.6 µM (inactive); in the assay with HOP-62 it was 27.9 µM (inactive); with TK-10, > 55.2 µM (inactive); in the assay on IGROV-1, 76.2 µM (inactive). The GI50 in the assay with HT-29 is 9.77 µM (inactive); with UACC-257, 8.02 µM (inactive); with MDA-N, 46.3 µM (inactive); in the assay on A498 it was 6.07 µM (inactive); with SW-620 it was > 82.2 µM (inactive); in the assay on OVCAR-8, 17.3 µM (inactive). Besides, the GI50 with SF-295 is 14 µM (inactive); in the assay on HCT-15, over 55.5 µM.
